Reference: US20260139017A1, “COMPOSITIONS AND METHODS USING REELIN IN ALZHEIMER'S DISEASE” (The General Hospital Corporation, priority 2022, published 2026)

Columns and labels:
[1] = Surface plasmon resonance (SPR) binding of CTR-RELN peptides to heparin-coated chip
Procedure: Surface plasmon resonance assay (SPR) was used for performing binding kinetics using a Biacore 3000 Instrument (GE Healthcare) at 25° C. following previously published protocols (7 24) as fee-for-service by Precision Antibody (Maryland, USA). Biotin-labeled heparin (B9806, Sigma Aldrich) was covalently linked to streptavidin-coated chip and unoccupied sites were blocked with biocytin. Antigen was flowed over the chip using a range of single analyte concentrations prepared in DPBS buffer and using a flow rate of 30 μL/min. Binding of antigen to the ligand was monitored in real time to obtain on (ka) and off (kd) rates. The equilibrium constant (KD) was calculated from the observed ka and kd. Accuracy of the SPR analysis was determined via Chi square (χ2) analysis as described in the statistical analysis section. We included in the analyses the WT and H3447R peptides and peptides with the hypothetical H3447D change ([…])(SEQ ID NO:57) and the H3447K change ([…])(SEQ ID NO:58), also produced and purified by Innovagen (Sweden).
Surface plasmon resonance assay (SPR) was used for performing binding kinetics using a Biacore 3000 Instrument (GE Healthcare) at 25° C. following previously published protocols 34 24 fee-for-service by Precision Antibody (Maryland, USA). Heparin was covalently linked to streptavidin coated chip at 13 response units (RU) concentration and unoccupied sites were blocked with biocytin. Antigen was flowed over the chip using a range of single analyte concentrations prepared in DPBS buffer and using a flow rate of 30 μL/min. Binding of antigen to the ligand was monitored in real time to obtain on (ka) and off (kd) rates. The equilibrium constant (KD) was calculated from the observed ka and kd. Accuracy of the SPR analysis was determined via Chi square (2) analysis as described in the statistical analysis section.

[2] = Isothermal titration calorimetry (ITC) of CTR-RELN with heparin; type: binding; conditions: titrated with 5 μM heparin, vs WT
Aβ42 = biological target: T1, Aβ42 (Homo sapiens, UniProt P05067); assay: Thioflavin T (ThT) Aβ aggregation assay; type: biochemical; conditions: Aβ42 55 μM, 10 μM peptide, vs Aβ alone
T1 construct: SensoLyte ThT O-Amyloid (1-42) Aggregation kit
T1 sequence (P05067 672-713 limits assumed): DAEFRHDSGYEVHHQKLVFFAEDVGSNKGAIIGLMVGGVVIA
Procedure: Therefore, the ThT assay can be used to quantify AB aggregation using previously developed methods (40).
We incubated CTR-RELN with Aβ and monitored aggregation using a ThioflavinT fluorescence assay normalized to the maximum ThT emission of Aβ only. We also assayed Aβ in the presence of morin, a known inhibitor (41), as a […]. Long and short WT and H3447R RELN CTR peptides were included to better understand the potential role of the H3447R mutation in amyloid pathology (FIGS. 14 and 15. Negative controls included long and short RELN CTR peptides with neutrally charged AAs (histidines) in place of basic AAs in the alpha- and beta-GAG binding sites.
A Thioflavin T (ThT) assay was also performed using synthetic Reelin peptides to assess the differential effects of these proteins on Aβ42 aggregation in vitro using Thioflavin T (SensoLyte ThT O-Amyloid (1-42) Aggregation kit, catalog no. ΔS-72214). Aβ42 was added to a final concentration of 55 μM in solutions of 10 μM of Reelin peptide variants in a transparent, no-binding 96-well plate. Samples were then mixed with 2 mM Thioflavin T dye and fluorescence was read at excitation wavelength/emission wavelength (Ex/Em)=440/484 nm at intermittent time intervals over 2 h. The plate was kept at 37° C. with 15 s shaking between reads. […] In general, it appears that the RELN Cterm domain is highly unstructured. […] If the mini-RELN includes the C-term domain only without a receptor binding domain then the protection will not involve signaling, but will still involve direct interactions with tau. If the mini-RELN includes the C-term domain and the receptor binding domain, it will have at least two protective mechanisms, namely RELN signaling and direct interactions with tau.

Sequence: RKQNYMMNFSRQHGLRRFYNRRRRSLRRYP [CTR-RELN H3447R]
- heparin affinity/interaction relative to WT, in words ([1]; SPR kinetic constants): about twice
- interaction/affinity with heparin relative to WT ([1]; SPR, kinetic data, vs RELN WT peptide): ~2 fold
- thermodynamics of heparin interaction [2]: enhanced interactions
- Aβ aggregation (ThT fluorescence) (Aβ42; listed as COLBOS variant): enhanced this effect
- Aβ aggregation (ThT fluorescence) (Aβ42; listed as H3447R): did not significantly affect Aβ aggregation compared to WT
- Aβ aggregation (ThT fluorescence) (Aβ42; listed as RELN H3447R): similarly effective at inhibiting ThT aggregation as WT
